Legend:
PLC5 xenograft tumor = PLC5 xenograft tumor growth in nude mice; conditions: p.o. daily, after 21 days of treatment, erlotinib 50 mg/kg/day, compounds 8 and 19 20 mg/kg/day
Procedure: (§1) The mice were housed in groups and maintained under standard laboratory conditions on a 12-hour light-dark cycle. They were given access to sterilized food and water ad libitum. All experimental procedures using these mice were performed in accordance with protocols approved by the Institutional Laboratory Animal Care and Use Committee of National Taiwan University. Each mouse was inoculated s.c. in the dorsal flank with 1×10^6 HCC cells suspended in 0.1 ml of serum-free medium containing 50% Matrigel (BD Biosciences, Bedford, Mass.). […] Controls received vehicle.
(§2) Tumor growth data points are reported as mean tumor volume±SE.

Huh-7 xenograft tumor = Huh-7 xenograft tumor growth in nude mice; conditions: erlotinib 50 mg/kg/day
Procedure: as §1, §2

[1] = tumor-bearing mice, p.o. daily for 3 weeks; erlotinib 50 mg/kg/day, compounds 8 and 19 20 mg/kg/day

Compound: C#Cc1cccc(Nc2ncnc3cc(OCCOC)c(OCCOC)cc23)c1 [erlotinib, reference compound]
- tumor inhibition, PLC5 cell (PLC5 xenograft tumor): 50.0%
- effect on Huh-7 tumor growth, in words (Huh-7 xenograft tumor; p.o. daily for 3 weeks, compounds 20 mg/kg/day (FIG. 7A-7B)): no effect on tumor growth
- tumor inhibition, Huh7 cell (Huh-7 xenograft tumor; p.o. daily, after 21 days of treatment, compounds 8 and 19 20 mg/kg/day): 8.8%
- tolerability (signs of toxicity, body weight, necropsy) [1]: tolerated the treatments well without observable signs of toxicity

From patent publication US9394261B2, “Aryl amine substituted pyrimidine and quinazoline and their use as anticancer drugs” (National Yang-Ming University, priority 2012, dated 2016)
